# According to patent US20040058984A1, “Stabilization of radiopharmaceutical compositions using hydrophilic thioethers and hydrophilic 6-hydroxy chromans” (priority 2003, published 2004):
# What was measured:
# [1] = HPLC RCP of 99mTc-depreotide with hydrophilic thioether additives (Example 8); assay type: physicochemical; conditions: for effect on 99mTc-labelled peptide radiolabelling yield or stability: 99mTc-depreotide; for 3.5 hr RCP / 6.5 hr RCP / Initial RCP: 99mTc-depreotide kit, additive 4 mg, heated prep
# Experimental: Each hydrophilic thioether was dissolved in water made up at 40 mg/mL and adjusted to pH 7 with HCl or NaOH. […] To the control vials were added 100 μL water.
# [2] = HPLC RCP of 99mTc-depreotide kits with L-methionine (Example 2); conditions: formulated kits stored under normal conditions (≦−10° C.)
# Experimental: Lyophilized kit vials were prepared containing depreotide, L-methionine (Met), and other components as described in Table 3. All formulations were adjusted to pH 7.4 prior to lyophilization.
# The lyophilized kits were radiolabelled with ^99mTc by reconstitution with 1.0 mL technetium ^99mTc sodium pertechnetate (Technelite®) containing approximately 50 mCi ^99mTc and heating in a boiling water bath for 10 minutes. Some of the formulations were also radiolabelled in a room temperature preparation (allowed to stand at rom temperature 30 minutes following reconstitution).
# [3] = HPLC RCP of 99mTc-labelled benzodiazepinedione derivative kits with L-methionine (Example 4); assay type: physicochemical; conditions: formulated kits
# Experimental: L-methionine was tested for its ability to stabilize a ^99mTc-labelled glycoprotein IIb/IIIa receptor-binding benzodiazepinedione derivative 1-[(carboxyglycyl-glycyl-glycyl-cysteinamide)methyl]-4-(2-carboxyethyl)-7-[(4-amidinophenyl)methyl]-3,4-dihydro-1H-1,4-benzodiazepine-2,5-dione trifluoroacetate, having the structure. [drawing 15]
# All formulations were adjusted to pH 7.4 prior to lyophilization.
# The lyophilized kits were radiolabelled with ^99mTc by reconstitution with 1.0 mL technetium ^99mTc sodium pertechnetate (Technelite®) containing approximately 50 mCi ^99mTc and heating in a boiling water bath for 10 minutes.
# [4] = HPLC RCP of 99mTc-labelled glycoprotein IIb/IIIa receptor-binding peptide with L-methionine (Example 5); assay type: physicochemical
# Experimental: Lyophilized kit vials were prepared containing the peptide (50 μg), sodium glucoheptonate dihydrate (10 mg), stannous chloride dihydrate (50 μg), and edetate disodium dihydrate (100 μg). The formulation was adjusted to pH 7.4 prior to lyophilization.
# The lyophilized kits were radiolabelled with ^99mTc in the presence and absence of L-methionine. […] Both vials were then reconstituted with 1.0 mL technetium ^99mTc sodium pertechnetate (Technelite®) containing approximately 50 mCi ^99mTc and allowed to incubate for 30 minutes at room temperature.
# [5] = HPLC RCP of 99mTc-labelled bisamine bisthiol non-peptide chelator with L-methionine (Example 7); assay type: physicochemical
# Excerpt: The non-peptide chelator was radiolabelled with ^99mTc in the presence and absence of L-methionine using the placebo vial heated preparation procedure as described in Example 6.
Structure (SMILES),effect on 99mTc-labelled peptide radiolabelling yield or stability [1],effect on radiolabelling yield and stability of 99mTc-depreotide [2],effect on radiolabelling yield and stability of the 99mTc-labelled benzodiazepinedione derivative [3],effect on radiolabelling yield and stability of the 99mTc-peptide [4],effect on radiolabelling yield and stability of a 99mTc-labelled non-peptide chelator [5],3.5 hr RCP [1],6.5 hr RCP [1],Initial RCP [1]
"CSCCC=O [3-(methylthio)propionaldehyde, reference compound]",no effect,–,–,–,–,–,–,–
"CS(=O)(=O)CC[C@H](N)C(=O)O [methionine sulfone, reference compound]",no effect,–,–,–,–,–,–,–
CSCC[C@H](N)C(=O)O [L-methionine],–,increases the radiolabelling yield and the stability,increases the radiolabelling yield and the stability,increases the radiolabelling yield and the stability,increases the radiolabelling yield and the stability,90.4,89.3,95.0
"CSCC[C@H](N)CO [Methioninol, methioninol]",increase the radiolabelling yield and the stability,–,–,–,–,93.9,90.7,94.1
"C[S+]([O-])CC[C@H](N)C(=O)O (stereo partly shown) [Methionine sulfoxide, reference compound]",no effect,–,–,–,–,–,–,–
CCSCCN [2-(Ethylthio)ethylamine],increase the radiolabelling yield and the stability,–,–,–,–,94.2,93.3,92.8
"CSCC(O)CO (stereo not shown) [3-Methylthio-1,2-propanediol, 3-methylthio-1,2-propanediol]",increase the radiolabelling yield and the stability,–,–,–,–,84.0,80.9,89.1
